Measured values as given in patent US11066447B2, “Aureobasidium derivatives and methods of synthesis” (AureoGen Biosciences, Inc., priority 2016, dated 2021).
Values after ≈ are worked out from the molar mass of the structure shown. Values joined by “and” are separate entries in the source; they are usually repeats but may differ in a detail not shown here. Identical values can stand only once. Like-named read-outs stand apart in the source and are kept apart here. Numbered stars: 1 amine (or outer) side, 2 acyl side, 3 side chain; on linkers, the order of the positions; unused ones are H or OH. Square brackets hold non-standard residues; d marks the D form. Peptide text beside a SMILES is read from it. ξ: configuration not given here. X4 = CN1CCN(c2cc(-c3cccc(C[C@@H](C(=O)[*:2])N(C)[*:1])c3)ccn2)CC1; X30 = CN([C@@H](Cc1cccc(-c2ccc(Cl)c(Cl)c2)c1)C(=O)[*:2])[*:1]; X5 = CN([C@@H](Cc1cccc(-c2ccc3cnccc3c2)c1)C(=O)[*:2])[*:1]; Hmp(2R,3S) = CC[C@H](C)[C@@H](O)C(=O)O; NMeVal(β-OH) = CN[C@H](C(=O)O)C(C)(C)O; X6 = CCC(C)[C@@H](O[*:1])C(=O)[*:2]; Ile(3ξ) = CCC(C)[C@H](N)C(=O)O; NMeV = CN[C@H](C(=O)O)C(C)C; ξL = CC(C)CC(N)C(=O)O

What was measured:
[1] = tested on: C. albicans MMX 2000 ATCC 10231; experiment: MIC assay (CLSI microdilution); assay type: cell-based; conditions: Candida albicans, ATCC10231, RPMI plus 0.002% Tween-80; read-out: MIC
Experimental: (§1) Aureobasidin and test compounds (i.e., AbA derivatives of the present invention) were received from Kalexsyn, Inc. (Kalamazoo, Mich.) as powder and were stored at 4° C. until the day of assay. […] amphotericin was obtained from Sigma Aldrich and stored under like conditions. […] Ethanol (95%) was used as a solvent and diluent for all AbA compounds. Amphotericin B was tested from 0.06-64 μg/mL. Amphotericin B (Sigma Aldrich; St. Louis, Mo.; Cat No. A9528-100MG, Lot No. 120M4087) was dissolved and diluted with dimethylsulfoxide (DMSO; Sigma Aldrich; St. Louis, Mo.; Cat No. 472301 Lot No. SHBD2072V).
(§2) The solvents were added to the test agents and the stock solutions stood for approximately 1 hr at room temperature prior to use to auto sterilize. Stock solutions were prepared at 40× the desired top concentration in the test plate.
(§3) All of the test isolates were originally received from either the American Type Culture Collection (ATCC), clinical labs, or directly from Aureogen Biosciences. Organisms stored by Micromyx were cultured on agar medium appropriate to each organism. Colonies were picked by swab from the isolation plates and put into suspension in appropriate broth containing cryoprotectant. The suspensions were aliquoted into cryogenic vials and maintained at −80° C.
(§4) Prior to testing, Candida isolates were streaked from the frozen vials on Sabouraud dextrose agar. The yeast isolates were incubated for 48 hours at 35° C. before use. The fungal isolates were obtained from enumerated fungal stocks previously prepared at Micromyx and stored in phosphate buffered saline at 4° C.
(§5) Test Media. The medium employed for the MIC assay was RPMI-1640 medium from HyClone Laboratories (Logan, Utah; Lot No. AYB60287A). The medium was prepared according to Clinical and Laboratory Standards Institute (CLSI) guidelines (1, 2), and modified to include 0.002% Tween-80. Candida parapsilosis ATCC 22019 (MMX 2323) and Aspergillus fumigatus ATCC MYA-3626 (MMX 5280) were also tested without Tween-80 to provide data for the quality control of amphotericin B in accordance with CLSI (3) and to assess the effect of Tween-80 on the activity of the test agents.
(§6) Test Procedure. The MIC assay method followed the procedure described by CLSI (1, 2) and employed automated liquid handlers to conduct serial dilutions and liquid transfers. Automated liquid handlers included the Multidrop 384 (Labsystems, Helsinki, Finland), Biomek 2000 and Biomek FX (Beckman Coulter, Fullerton Calif.). The wells in columns 2-12 in standard 96-well microdilution plates (Costar 3795) were filled with 150 μl of the appropriate diluent (95% EtOH for investigational compounds, 100% DMSO for amphotericin B). These assay plates would become the ‘mother plates’ from which the assay ‘daughter plates’ would be prepared. The drugs (300 μL at 40× the desired top concentration in the test plates) were dispensed into the appropriate well in Column 1 of the mother plates. The Biomek 2000 was used to make two-fold serial dilutions through Column 11 in the “mother plate”. The wells of Column 12 contained no drug and served as the organism growth control wells.
(§7) The daughter plates were loaded with 185 μL per well on the Multidrop 384 with RPMI plus 0.002% Tween-80 or RPMI containing no Tween-80 for the testing of the two QC isolates. The daughter plates were prepared on the Biomek FX instrument which transferred 5 μL of drug solution from each well of a mother plate to each corresponding well of each daughter plate in a single step.
(§8) A standardized inoculum of each organism was prepared per CLSI methods (1, 2). For the Candida isolates, colonies were picked from the streak plate and a suspension was prepared in RPMI to equal a 0.5 McFarland standard. This suspension was diluted 1:100 in RPMI resulting in a final concentration of approximately 0.5-2.5×10^3 CFU/mL. […]

[2] = tested on: C. neoformans MMX 0634 ATCC 90112; experiment: MIC assay (CLSI microdilution); assay type: cell-based; conditions: Cryptococcus neoformans, ATCC90112, RPMI plus 0.002% Tween-80; read-out: MIC
Experimental: as §1, §2, §3, §4, §5, §6, §7, §8

[3] = tested on: C. parapsilosis MMX 2323 ATCC 22019; experiment: MIC assay (CLSI microdilution); assay type: cell-based, Candida parapsilosis
Experimental: as §1, §2, §3, §4, §5, §6, §7, §8

[4] = tested on: A. niger MMX 0624 ATCC 16888; experiment: MIC/MEC assay (CLSI microdilution); assay type: cell-based; conditions: Aspergillus niger, ATCC16888, 48 h
Experimental: as §1, §2, §3, §4, §5, §6, §7, §8

A. flavus MMX 5948 = experiment: MIC/MEC assay (CLSI microdilution); assay type: cell-based
Experimental: as §1, §2, §3, §4, §5, §6, §7, §8

A. fumigatus MMX 5944 = experiment: MIC/MEC assay (CLSI microdilution); assay type: cell-based; conditions: for minimal effective concentration / MIC: Aspergillus fumigatus, MMX5944, 48 h; for MIC: RPMI plus 0.002% Tween-80, read-out: MIC
Experimental: as §1, §2, §3, §4, §5, §6, §7, §8

[5] = tested on: A. fumigatus MMX 6781 ATCC MYA-4609; experiment: MIC/MEC assay (CLSI microdilution); assay type: cell-based; conditions: Aspergillus fumigatus; for MIC: 48 h, RPMI plus 0.002% Tween-80, read-out: MIC; for minimal effective concentration: RPMI plus 0.002% Tween-80, 48 hr
Experimental: as §1, §2, §3, §4, §5, §6, §7, §8

[6] = tested on: A. fumigatus MMX 6782 ATCC 13073; experiment: MIC/MEC assay (CLSI microdilution); assay type: cell-based; conditions: Aspergillus fumigatus, ATCC13073, 48 h; for MIC: RPMI plus 0.002% Tween-80, read-out: MIC
Experimental: as §1, §2, §3, §4, §5, §6, §7, §8

[7] = tested on: A. fumigatus MMX 5280 ATCC MYA-3626; experiment: MIC/MEC assay (CLSI microdilution); assay type: cell-based, Aspergillus fumigatus
Experimental: as §1, §2, §3, §4, §5, §6, §7, §8

[8] = tested on: A. fumigatus from Aureogen; experiment: MIC/MEC assay (CLSI microdilution); assay type: cell-based
Experimental: as §1, §2, §3, §4, §5, §6, §7, §8

[9] = ATCC22019, RPMI plus 0.002% Tween-80, read-out: MIC
[10] = ATCC22019, Without Tween-80, read-out: MIC
[11] = RPMI plus 0.002% Tween-80, read-out: MEC
[12] = RPMI plus 0.002% Tween-80, read-out: MIC
[13] = Aspergillus flavus, MMX5948, 48 h, RPMI plus 0.002% Tween-80
[14] = Aspergillus flavus, MMX5948, 48 h, RPMI plus 0.002% Tween-80, read-out: MIC
[15] = Aspergillus fumigatus, 48 h, RPMI plus 0.002% Tween-80, read-out: MEC
[16] = Aspergillus fumigatus, 48 h, RPMI plus 0.002% Tween-80, read-out: MIC
[17] = Aspergillus fumigatus, 48 h, Without Tween-80, read-out: MIC
[18] = read-out: MEC, RPMI plus 0.002% Tween-80
[19] = RPMI plus 0.002% Tween-80, 48 hr

SMILES | MIC [2] [µg/mL] | MIC [3, 9] [µg/mL] | MIC [3, 10] [µg/mL] | MIC [4, 12] [µg/mL] | MIC (A. flavus MMX 5948; [14]) [µg/mL] | minimal effective concentration (A. fumigatus MMX 5944; RPMI plus 0.002% Tween-80) [µg/mL] | MIC (A. fumigatus MMX 5944) [µg/mL] | MIC [5] [µg/mL] | minimal effective concentration [5] [µg/mL] | MIC [6] [µg/mL] | minimal effective concentration [7, 15] [µg/mL] | MIC [7, 16] [µg/mL] | MIC [7, 17] [µg/mL] | MIC ([7]; Without Tween-80, 48 hr) [µg/mL] | further results
CC[C@H](C)[C@@H]1NC(=O)[C@@H]2CCCN2C(=O)[C@H](Cc2cccc(-c3ccc(Cl)c(Cl)c3)c2)N(C)C(=O)[C@H](Cc2ccccc2)NC(=O)[C@H](C(C)C)N(C)C(=O)[C@@H]([C@@H](C)CC)OC(=O)[C@H](C(C)(C)O)N(C)C(=O)[C@H](CC(C)C)NC(=O)[C@H](C(C)C)N(C)C1=O [Compound 2] (cyclo(F[X30]PI[NMeV]L[NMeVal(β-OH)][Hmp(2R,3S)][NMeV])) | 0.12 | 0.5 | 2 (≈ 1.6 µM) | 0.5 | 1 | 0.5 | > 64 | > 64 | 0.5 | > 64 | 0.5 | > 64 | > 64 | – | MIC [1]: 0.12 µg/mL; minimal effective concentration [4, 11]: 0.5 µg/mL; minimal effective concentration (A. flavus MMX 5948; [13]): 0.5 µg/mL; minimal effective concentration [6, 11]: 0.25 µg/mL; minimal effective concentration ([7]; Aspergillus fumigatus, 48 h, Without Tween-80, read-out: MEC): 8 µg/mL
CCC(C)[C@@H]1NC(=O)[C@@H]2CCCN2C(=O)[C@H](Cc2cccc(-c3ccc4cnccc4c3)c2)N(C)C(=O)[C@H](Cc2ccccc2)NC(=O)[C@H](C(C)C)N(C)C(=O)[C@@H](C(C)CC)OC(=O)[C@H](C(C)(C)O)N(C)C(=O)C(CC(C)C)NC(=O)[C@H](C(C)C)N(C)C1=O (stereo partly drawn) [Compound 6] (cyclo(F[X5]P[Ile(3ξ)][NMeV][ξL][NMeVal(β-OH)][X6][NMeV])) | – | – | – | – | – | – | – | – | – | – | – | – | – | > 64 | MIC ([3]; ATCC22019, RPMI plus 0.002% Tween-80): 0.12 µg/mL; MIC ([3]; ATCC22019, Without Tween-80): 1 µg/mL (≈ 0.814 µM); MIC ([4]; RPMI plus 0.002% Tween-80): 0.12 µg/mL; minimal effective concentration [4, 18]: 0.12 µg/mL; MIC (A. flavus MMX 5948; [13]): 0.25 µg/mL; MEC (A. fumigatus MMX 5944; [19]): 0.5 µg/mL; minimal effective concentration [6, 18]: 0.25 µg/mL; minimal effective concentration ([7]; Aspergillus fumigatus, 48 h, read-out: MEC, RPMI plus 0.002% Tween-80): 1 µg/mL; minimal effective concentration ([7]; Aspergillus fumigatus, 48 h, read-out: MEC, Without Tween-80): 2 µg/mL
CC[C@H](C)[C@@H]1NC(=O)[C@@H]2CCCN2C(=O)[C@H](Cc2cccc(-c3ccnc(N4CCN(C)CC4)c3)c2)N(C)C(=O)[C@H](Cc2ccccc2)NC(=O)[C@H](C(C)C)N(C)C(=O)[C@@H]([C@@H](C)CC)OC(=O)[C@H](C(C)(C)O)N(C)C(=O)[C@H](CC(C)C)NC(=O)[C@H](C(C)C)N(C)C1=O [Compound 15] (cyclo(F[X4]PI[NMeV]L[NMeVal(β-OH)][Hmp(2R,3S)][NMeV])) | 0.06 | 0.03 | 0.5 (≈ 0.392 µM) | 0.03 | 0.25 | 0.06 | 0.5 | 0.25 | 0.12 | 0.5 | 0.12 | 0.25 | 1 (≈ 0.783 µM) | 2 (≈ 1.57 µM) | MIC ([3]; Without Tween-80): 0.5 µg/mL (≈ 0.392 µM); MIC (A. flavus MMX 5948; [19]): 0.25 µg/mL; minimal effective concentration ([8]; Aspergillus fumigatus, 48 h, RPMI plus 0.002% Tween-80): 0.06 µg/mL; MIC [8, 16]: 0.25 µg/mL; MIC [8, 19]: 0.25 µg/mL; MEC ([7]; Without Tween-80, 48 hr): 1/1 μg/mL and 1 μg/mL
